“Also recorded” adds a separate entry of the source. Where no end group is shown, it is not given here.
Key:
[1] = target: T1, Porcine cholesterol esterase (Sus scrofa, UniProt A0A286ZKB1); test: CE inhibitory activity assay (spectrophotometry); format: biochemical; conditions: for comparative inhibitory activity on CE (in words): authors' ranking, for KQ7 partly integrating molecular dynamics; for concentration dependence of CE inhibition rate: 0.2–1.0 mg/mL; for CE inhibition rate vs control group: all concentrations, p < 0.05
T1 sequence (A0A286ZKB1 1-682): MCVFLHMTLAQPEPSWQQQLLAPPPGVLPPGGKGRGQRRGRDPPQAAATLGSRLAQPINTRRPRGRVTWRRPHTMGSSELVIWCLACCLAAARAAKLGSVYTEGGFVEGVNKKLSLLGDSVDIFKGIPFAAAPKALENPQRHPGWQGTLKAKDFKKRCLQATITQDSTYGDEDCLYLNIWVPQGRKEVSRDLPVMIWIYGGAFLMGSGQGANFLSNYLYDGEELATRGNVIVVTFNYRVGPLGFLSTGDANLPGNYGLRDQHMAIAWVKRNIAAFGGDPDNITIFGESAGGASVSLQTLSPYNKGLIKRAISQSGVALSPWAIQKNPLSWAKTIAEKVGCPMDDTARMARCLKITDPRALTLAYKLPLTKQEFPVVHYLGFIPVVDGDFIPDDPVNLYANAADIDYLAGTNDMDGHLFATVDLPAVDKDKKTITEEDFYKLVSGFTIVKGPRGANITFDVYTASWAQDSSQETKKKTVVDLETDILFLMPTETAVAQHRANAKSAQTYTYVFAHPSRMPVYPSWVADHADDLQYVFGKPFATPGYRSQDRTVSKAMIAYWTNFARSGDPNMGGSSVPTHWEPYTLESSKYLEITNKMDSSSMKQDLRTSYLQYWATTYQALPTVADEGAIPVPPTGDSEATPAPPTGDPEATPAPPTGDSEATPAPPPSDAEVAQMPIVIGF
Description: (§1) Porcine cholesterol esterase and the ELISA kit were provided by Jiangsu JINGMEI Biotechnology Co., Ltd. (Yancheng, China).
(§2) In the formula, ODs: is the absorbance value of the sample group; ODsb: is the absorbance value of the sample blank group; ODc: is the absorbance value of the control group; and ODb: is the absorbance value of the blank group.
(§3) Each experimental sample was tested in triplicate, and the data were processed using IBM SPSS Statistics 26 software. Figures were generated using Origin 2018 and GraphPad Prism 8.0.2 software.

[2] = target: T1, Porcine cholesterol esterase; test: CE inhibitory activity after simulated gastrointestinal digestion (pepsin, trypsin); format: biochemical; conditions: for CE inhibition after digestion (in words): after simulated gastrointestinal digestion; for change of CE inhibition on digestion (in words): simulated gastrointestinal digestion, KQ7, QP13, VN10 at 60 min, RK7 within 120 min
Excerpt: as §1, §2
We dissolved the synthesized peptide aqueous solution in pepsin (enzyme: substrate 1:50 w/w) and adjusted the pH to 2 using 1 mol/L HCl. Then, we hydrolyzed this at 37 °C for 90 min, then adjusted the pH to 7.5 with 1 mol/L NaOH solution and added trypsin (enzyme: substrate 1:50 w/w). Next, we hydrolyzed this at 37 °C for 180 min in a constant temperature water bath. Subsequently, we inactivated this by boiling it in a 95 °C water bath for 10 min. Finally, we took samples every 30 min and stored each sample at −20 °C for later analysis.
The determination of CE activity refers to Section 2.3.5.
as §3

[3] = peptide isolated from soybean glycinin; ref [26]; cited from earlier work
Excerpt: These carbon–hydrogen bonds may have stabilized the QP13–CE complex to some extent, complementing the hydrogen bonds. It formed π–Alkyl bonds with Ile426, Phe119, Ala117, Leu69, and Leu124 through hydrophobic interactions. QP13 also interacted with Asp434, Lys445, Asn118, Met424, Ile426, Tyr75, Thr68, Tyr427, Tyr123, Leu69, Gln440, Asn112, Phe119, and Arg63 through van der Waals f ...

Molecule	comparative inhibitory activity on CE (in words) [1]	IC50 ([1]; from inhibition curve, spectrophotometry, triplicate) [µM]	CE inhibition after digestion (in words) [2]	change of CE inhibition on digestion (in words) [2]	concentration dependence of CE inhibition rate [1]	CE inhibition rate vs control group [1]	cholesterol effect [3]
CC(C)c1c(C(=O)Nc2ccccc2)c(-c2ccccc2)c(-c2ccc(F)cc2)n1CC[C@@H](O)C[C@@H](O)CC(=O)O [Atorvastatin, reference compound]	strongest inhibitory effect on CE	854	–	–	–	–	–
KVLPVPQ [KQ7, Lys-Val-Leu-Pro-Val-Pro-Gln]	highest inhibitory activity on CE; also recorded: higher inhibitory activity against CE compared to RK7; also recorded: highest inhibitory activity against CE	–	effective in inhibiting CE after simulated gastrointestinal digestion	significant increase in the inhibitory activity; also recorded: significant increase in CE inhibition activity at 60 min during digestion (p < 0.05); also recorded: significantly enhanced after simulated gastrointestinal digestion	increased with the increase of peptide mass concentration	significantly higher than those of the control group at all concentrations (p < 0.05)	–
Leu–Pro–Tyr–Pro	–	–	–	–	–	–	demonstrated low cholesterol effects
QEPVLGPVRGPFP [QP13]	–	–	effective in inhibiting CE after simulated gastrointestinal digestion	significant increases in inhibition activity (p < 0.05)	increased with the increase of peptide mass concentration	significantly higher than those of the control group at all concentrations (p < 0.05)	–
RPKHPIK [RK7, Arg-Pro-Lys-His-Pro-Ile-Lys]	–	–	effective in inhibiting CE after simulated gastrointestinal digestion	significant increase in the inhibitory activity; also recorded: significant changes observed (p < 0.05); also recorded: significantly enhanced after simulated gastrointestinal digestion	increased with the increase of peptide mass concentration	significantly higher than those of the control group at all concentrations (p < 0.05)	–
VYPFPGPIPN [VN10]	–	–	effective in inhibiting CE after simulated gastrointestinal digestion	significant increases in inhibition activity (p < 0.05)	increased with the increase of peptide mass concentration	significantly higher than those of the control group at all concentrations (p < 0.05)	–
